In general, pKi refers to the Ki on a negative log10 scale, so that one unit is a factor of ten.

pKi: −log10 of the molar value. Where two headings read alike, the source gives them in different places.

In this assay the target is T1, human V1b receptors (Homo sapiens, UniProt P47901).
T1 construct: expressed in transfected cells
T1 sequence (P47901 1-424): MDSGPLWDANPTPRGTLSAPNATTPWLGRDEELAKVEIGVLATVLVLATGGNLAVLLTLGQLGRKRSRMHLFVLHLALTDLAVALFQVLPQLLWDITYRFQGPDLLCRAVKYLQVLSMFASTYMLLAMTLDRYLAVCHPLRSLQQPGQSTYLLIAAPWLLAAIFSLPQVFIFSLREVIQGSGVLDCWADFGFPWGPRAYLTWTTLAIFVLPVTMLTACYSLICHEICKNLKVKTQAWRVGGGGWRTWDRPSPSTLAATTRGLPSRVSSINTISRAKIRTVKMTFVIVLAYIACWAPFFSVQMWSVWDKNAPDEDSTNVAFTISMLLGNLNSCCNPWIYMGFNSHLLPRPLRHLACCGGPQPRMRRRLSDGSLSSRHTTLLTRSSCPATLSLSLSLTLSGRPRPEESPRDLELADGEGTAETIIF
Nature of the assay: Vasopressin V1b receptor binding assay. On the procedure: Vasopressin V1b Receptor Binding Assay:
These DMSO solutions were diluted 1:10 with assay buffer. The substance concentration was further diluted 1:10 in the assay mixture.
The nonspecific binding was determined with 10^−6 M AVP. Determinations in triplicate were carried out.
The affinities for the human vasopressin V1b receptor were measured, and affinity constants determined, in the above assay for the inventive examples.
The affinities of the compounds (I) of the invention for the human vasopressin V1b receptor were measured in accordance with the above assays, and the affinity constants (Ki) were determined. Table 1 below details the V1b receptor affinity of selected compounds (+++ means <10 nM and ++ means 10-100 nM).

The mark [1] stands for this setting: Table 1, human vasopressin V1b receptor affinity, read-out: V1b Ki.
[2] abbreviates: membranes from CHO-K1 cells, 3H-AVP displacement, read-out: measured Ki values, affinities for the vasopressin V1b receptor.

On to `CCOc1ccccc1C1(OC(=O)N2CCN(c3nccs3)CC2)C(=O)N(S(=O)(=O)c2ccc(OC)cc2OC)c2ccc(C#N)cc21` (centres unmarked) [Example 30, 1-(2,4-Dimethoxybenzenesulfonyl)-5-cyano-2-oxo-3-(2-ethoxyphenyl)-2,3-dihydro-1H-indol-3-yl 4-(thiazol-2-yl)piperazine-1-carboxylate], for which the pKi under setting [1] is above 8.00 and the pKi under setting [2] is above 7.00.

Turning to `CCOc1ccccc1C1(NC(=O)N2CCN(c3ccc(C#N)cn3)CC2)C(=O)N(S(=O)(=O)c2ccc(Cl)cc2)c2ccc(C#N)cc21` (centres unmarked) [Example 46, 4-(5-Cyanopyridin-2-yl)piperazine-1-[1-(4-chlorobenzenesulfonyl)-5-cyano-2-oxo-3-(2-ethoxyphenyl)-2,3-dihydro-1H-indol-3-yl]carboxamide], the negative-log Ki (pKi) by setting is: under setting [1], 7.00 to 8.00; under setting [2], above 7.00.

For `CCOc1ccccc1C1(NC(=O)N2CCN(c3nccs3)CC2)C(=O)N(S(=O)(=O)c2ccc(OC)cc2OC)c2ccc(C#N)cc21` (centres unmarked) [Example 31, 4-(Thiazol-2-yl)piperazine-1-[1-(2,4-dimethoxybenzenesulfonyl)-5-cyano-2-oxo-3-(2-ethoxyphenyl)-2,3-dihydro-1H-indol-3-yl]carboxamide], the pKi runs as follows: under setting [1], above 8.00; under setting [2], above 7.00.

Consider `CCOc1ccccc1C1(NC(=O)N2CCN(c3ccncc3)CC2)C(=O)N(S(=O)(=O)c2ccccc2OC)c2ccc(C#N)cc21` (centres unmarked) [Example 10, 4-(Pyridin-4-yl)piperazine-1-[1-(2-methoxybenzenesulfonyl)-5-cyano-2-oxo-3-(2-ethoxyphenyl)-2,3-dihydro-1H-indol-3-yl]carboxamide], for which the pKi runs as follows: under setting [1], above 8.00; under setting [2], above 7.00.

Consider `CCOc1ccccc1C1(OC(=O)N2CCN(c3nccs3)CC2)C(=O)N(S(=O)(=O)c2ccc(C#N)cc2)c2ccc(C#N)cc21` (centres unmarked) [Example 42, 1-(4-Cyanobenzenesulfonyl)-5-cyano-2-oxo-3-(2-ethoxyphenyl)-2,3-dihydro-1H-indol-3-yl 4-(thiazol-2-yl)piperazine-1-carboxylate], for which the negative logarithm of the Ki (pKi) under setting [1] is 7.00 to 8.00 and the pKi under setting [2] was above 7.00.

For `CCOc1ccccc1C1(NC(=O)N2CCN(c3ccc(C#N)cn3)CC2)C(=O)N(S(=O)(=O)c2ccccc2F)c2ccc(C#N)cc21` (centres unmarked) [Example 49, 4-(5-Cyanopyridin-2-yl)piperazin-1-[1-(2-fluorobenzenesulfonyl)-5-cyano-2-oxo-3-(2-ethoxyphenyl)-2,3-dihydro-1H-indol-3-yl]carboxamide], the pKi under setting [2] is above 7.00.

Regarding `CCOc1ccccc1C1(NC(=O)N2CCN(c3ccc(C#N)cn3)CC2)C(=O)N(S(=O)(=O)c2ccc(C#N)cc2)c2ccc(C#N)cc21` (centres unmarked) [Example 50, 4-(5-Cyanopyridin-2-yl)piperazine-1-[1-(4-cyanobenzenesulfonyl)-5-cyano-2-oxo-3-(2-ethoxyphenyl)-2,3-dihydro-1H-indol-3-yl]carboxamide], under setting [1], the negative logarithm of the Ki (pKi) was 7.00 to 8.00.

In the case of `CCOc1ccccc1C1(NC(=O)N2CCN(c3ccc(C#N)cn3)CC2)C(=O)N(S(=O)(=O)c2ccc(C#N)cc2)c2ccc(C#N)cc21` (centres unmarked) [Example 47, 4-(5-Cyanopyridin-2-yl)piperazine-1-[1-(4-cyanobenzenesulfonyl)-5-cyano-2-oxo-3-(2-ethoxyphenyl)-2,3-dihydro-1H-indol-3-yl]carboxamide], the pKi under setting [1] was 7.00 to 8.00 and the negative logarithm of the Ki (pKi) under setting [2] is above 7.00.

As to `CCOc1ccccc1C1(NC(=O)N2CCN(c3ccncc3)CC2)C(=O)N(S(=O)(=O)c2ccc([N+](=O)[O-])cc2)c2ccc(C#N)cc21` (centres unmarked) [Example 17, 4-(Pyridin-4-yl)piperazine-1-[1-(4-nitrobenzenesulfonyl)-5-cyano-2-oxo-3-(2-ethoxyphenyl)-2,3-dihydro-1H-indol-3-yl]carboxamide], the pKi was above 8.00 under setting [1] and above 7.00 under setting [2].

For the compound `CCOc1ccccc1C1(NC(=O)N2CCN(c3ccncc3)CC2)C(=O)N(S(=O)(=O)c2ccc(C#N)cc2)c2ccc(C#N)cc21` (centres unmarked) [Example 14, 4-(Pyridin-4-yl)piperazine-1-[1-(4-cyanobenzenesulfonyl)-5-cyano-2-oxo-3-(2-ethoxyphenyl)-2,3-dihydro-1H-indol-3-yl]carboxamide], the pKi was above 8.00 under setting [1] and above 7.00 under setting [2].

In the case of `CCOc1ccccc1C1(OC(=O)N2CCN(c3ccncc3)CC2)C(=O)N(S(=O)(=O)c2ccc(F)cc2)c2ccc(C#N)cc21` (centres unmarked) [Example 21, 1-(4-Fluorobenzenesulfonyl)-5-cyano-2-oxo-3-(2-ethoxyphenyl)-2,3-dihydro-1H-indol-3-yl 4-(pyridin-4-yl)piperazine-1-carboxylate], the pKi reads like this: under setting [1], 7.00 to 8.00; under setting [2], above 7.00.

Consider `CCOc1ccccc1C1(NC(=O)N2CCN(c3ccncc3)CC2)C(=O)N(S(=O)(=O)c2ccc(F)cc2F)c2ccc(C#N)cc21` (centres unmarked) [Example 13, 4-(Pyridin-4-yl)piperazine-1-[1-(2,4-difluorobenzenesulfonyl)-5-cyano-2-oxo-3-(2-ethoxyphenyl)-2,3-dihydro-1H-indol-3-yl]carboxamide], for which the pKi under setting [1] is 7.00 to 8.00 and the pKi under setting [2] is above 7.00.

Consider `CCOc1ccccc1C1(NC(=O)N2CCN(c3ccncc3)CC2)C(=O)N(S(=O)(=O)c2ccc(C)cc2OC)c2ccc(C#N)cc21` (centres unmarked) [Example 15, 4-(Pyridin-4-yl)piperazine-1-[1-(2-methoxy-4-methylbenzenesulfonyl)-5-cyano-2-oxo-3-(2-ethoxyphenyl)-2,3-dihydro-1H-indol-3-yl]carboxamide], for which the negative-log Ki (pKi) runs as follows: under setting [1], above 8.00; under setting [2], above 7.00.

With `CCOc1ccccc1C1(NC(=O)N2CCN(c3ccncc3)CC2)C(=O)N(S(=O)(=O)c2ccccc2)c2ccc(C#N)cc21` (centres unmarked) [Example 11, 4-(Pyridin-4-yl)piperazine-1-[1-benzenesulfonyl-5-cyano-2-oxo-3-(2-ethoxyphenyl)-2,3-dihydro-1H-indol-3-yl]carboxamide], the pKi is, setting by setting: under setting [1], 7.00 to 8.00; under setting [2], above 7.00.

(Values after patent US8129389B2, “Substituted oxindole derivatives, medicaments containing the latter and use thereof” (Abbott GmbH & Co. KG, priority 2005, dated 2012).)
